Several values for one entry are separate records, joined by “and”; a condition that tells them apart may be missing. Identical values can stand only once. Like-named read-outs stand apart in the source and are kept apart here. One block for each compound: values may come before it.
Columns and labels:
MM.1R = assay: Cell viability assay, suspension cell line, 5 day Alamar Blue (Example 8): MM.1R; assay type: cell-based; settings: 120 h, Multiple Myeloma (Steroid Resistant) Cancer Cell
Protocol: (§1) Cell viability assays were performed on certain compounds of the disclosure, according to the following procedure.
(§2) Cell line specific media conditions used:
(§3) The procedure for suspension cell line compound screening was as follows:
(§4) Day 1: Cell Seeding and Compound Dosing
(§5) • Cells were seeded 2×10^5 in 96-well cell culture treated tissue culture plates: 87.5 μL/well; MM.1 S, MM,1R, NCIH510A. • 5-fold serial dilution (8 point) of each compound in DMSO 0-25 mM in compound storage plates was prepared (stored at −80° C. if not to be used immediately). • Cells were rinsed with 1% FBS Media (appropriate to cell line as described above) and replaced with 87.5 μL media prior to dosing. • DMSO compound dilution series was diluted in 1% FBS media (appropriate to cell line as described above)—2 μL in 248 μL to give an 8× final concentration. • Cells were dosed 12.5 μL/well in triplicate to give final dose curved on cells 0-25 μM. • Media blank 100 μL/well×8 was set up. • All plates were incubated at 37° C.
(§6) Day 6: 5 Day Viability Assay
(§7) • Alamar Blue viability reagent was added (10 μL per well) and incubated for 3 hours at 37° C. prior to fluorescence detection (Ex560 nm/Em590 nm) on a Varioskan Lux multimode plate reader.
(§8) Results from cell viability assays are summarized in Table 23, wherein A represents IC50≤1 μM; B represents 1 μM<IC50≤8 μM; and C represents IC50>8 μM. Blank cells indicate that the compound was not tested in a particular assay.

[1] = Pharmacokinetic studies of certain compounds in female Balb/c mice (Example 5); assay type: in vivo; settings: for concentration at 0.083 h / concentration at 0.25 h / concentration at 0.5 hr / concentration at 1 hr / concentration at 2 hr / concentration at 4 hr / concentration at 8 hr / concentration at 24 hr / concentration at 0.5 h / concentration at 1 h / concentration at 2 h / concentration at 4 h / concentration at 8 h / concentration at 24 h: female, Balb/c
Protocol: Pharmacokinetic studies were performed using Balb/c mice, 15-20 g, 6-9 weeks, female, N=9, purchased from Jihui Laboratory Animal Co. LTD. For compound I-29, Balb/c mice, 19-21 g, 9-11 weeks, female, N=9, were used. The mice were fasted overnight and fed at 4 h post dosing.
Animals were dosed via oral gavage (PO) or tail vein injection (IV) with compound. Sampling occurred at 0.083, 0.25, 0.5, 1, 2, 4, 8, and 24 h post dose (8 time points). The animals were restrained manually at the designated time points. Approx. […] of blood was taken from the animals via facial vein for semi-serial bleeding into tubes with K2EDTA. Blood samples were put on ice and centrifuged at 4° C. (2000 g, 5 min) to obtain plasma within 15 min after sample collection. Plasma samples were stored in dry ice temporarily and at approximately −70° C. until analysis.
For oral gavage, the compound was dosed as a suspension in 1% sodium carboxymethyl cellulose (CMC) and 0.2% Tween 80 in water. For 23.8 mg/kg and 30 mg/kg doses, 3 mg/mL was used; for 50 mg/kg doses, 5 mg/mL was used; and for 100 mg/kg doses, 10 mg/mL was used.
For IV administration, the compound was dosed as a solution in 5% DMSO, 5% Solutol HS15 and 90% saline. For 1 mg/kg and 1.48 mg/kg doses, 0.2 mg/mL was used.
Plasma samples were analyzed using LC-MS using a calibration curve of known concentrations.
The results of these studies are summarized in Tables 11-21 below and in FIGS. 2-8. […] BQL=below quantifiable limit for compound in female Balb/c mouse plasma samples. NA=not available. PK parameters were estimated by non-compartmental model using WinNonlin 8.2. If the adjusted rsq (linear regression coefficient of the concentration value on the terminal phase) was less than 0.9, T1/2 might not have been accurately estimated. F value was determined by the following equation: • If AUClast/AUCINF>80%:
F=(AUCINF-EX×DOSEIV)/(AUCINF-IV×DOSEEX)[…] • If AUClast/AUCINF<80% or AUCINF not available:
F=(AUClast-EX×DOSEIV)/(AUClast-IV×DOSEEX)*1000

MM.1S = assay: Cell viability assay, suspension cell line, 5 day Alamar Blue (Example 8): MM.1S; assay type: cell-based; settings: Homo sapiens, MM1.S, 120 h, Multiple Myeloma (Steroid Sensitive) Cancer Cell
Protocol: as §1, §2, §3, §4, §5, §6, §7, §8

[2] = mouse, plasma, I-27 PO 30 mg/kg

IC50 (MM.1R): 1000 to 8000 nM | Plasma concentration Individual ([1]; I-27 IV 1 mg/kg, 0.083 hr, 1 mg/kg): 4810 ng/mL and 5030 ng/mL | Plasma concentration Individual ([1]; I-27 IV 1 mg/kg, 0.25 hr, 1 mg/kg): 1300 ng/mL and 1270 ng/mL | Plasma concentration Individual ([1]; I-27 IV 1 mg/kg, 0.5 hr, 1 mg/kg): 584 ng/mL and 448 ng/mL | Plasma concentration Individual ([1]; I-27 IV 1 mg/kg, 1 hr, 1 mg/kg): 393 ng/mL and 335 ng/mL | Plasma concentration Individual ([1]; I-27 IV 1 mg/kg, 2 hr, 1 mg/kg): 213 ng/mL and 163 ng/mL | Plasma concentration Individual ([1]; I-27 IV 1 mg/kg, 4 hr, 1 mg/kg): 31.7 ng/mL and 29.9 ng/mL | Plasma concentration Individual ([1]; I-27 IV 1 mg/kg, 8 hr, 1 mg/kg): 5.02 ng/mL and 8.89 ng/mL | Plasma concentration Individual ([1]; I-27 IV 1 mg/kg, 24 hr, BQL = below quantifiable limit of 1.00 ng/mL, 1 mg/kg): BQL | F ([1]; I-27 PO 30 mg/kg vs IV 1 mg/kg): 27.4% | Plasma concentration Individual ([1]; I-27 PO 30 mg/kg, 0.083 hr, 30 mg/kg): 80.4 ng/mL and 62.5 ng/mL | Plasma concentration Individual ([1]; I-27 PO 30 mg/kg, 0.25 hr, 30 mg/kg): 368 ng/mL and 587 ng/mL | Plasma concentration Individual ([1]; I-27 PO 30 mg/kg, 0.5 hr, 30 mg/kg): 1590 ng/mL and 1270 ng/mL | Plasma concentration Individual ([1]; I-27 PO 30 mg/kg, 1 hr, 30 mg/kg): 2120 ng/mL and 2090 ng/mL | Plasma concentration Individual ([1]; I-27 PO 30 mg/kg, 2 hr, 30 mg/kg): 2860 ng/mL and 1950 ng/mL | Plasma concentration Individual ([1]; I-27 PO 30 mg/kg, 4 hr, 30 mg/kg): 2160 ng/mL and 1760 ng/mL | Plasma concentration Individual ([1]; I-27 PO 30 mg/kg, 8 hr, 30 mg/kg): 715 ng/mL and 493 ng/mL | Plasma concentration Individual ([1]; I-27 PO 30 mg/kg, 24 hr, 30 mg/kg): 11.0 ng/mL and 10.1 ng/mL | concentration at 0.083 h ([1]; mouse, plasma, iv, 1 mg/kg, I-27 IV 1 mg/kg, 0.083 hr, read-out: Plasma concentration Individual): 4410 ng/mL | concentration at 0.083 h ([1]; mouse, plasma, iv, 1 mg/kg, I-27 IV 1 mg/kg, 0.083 hr, read-out: Plasma concentration Mean): 4750 ng/mL | concentration at 0.25 h ([1]; mouse, plasma, iv, 1 mg/kg, I-27 IV 1 mg/kg, 0.25 hr, read-out: Plasma concentration Individual): 865 ng/mL | concentration at 0.25 h ([1]; mouse, plasma, iv, 1 mg/kg, I-27 IV 1 mg/kg, 0.25 hr, read-out: Plasma concentration Mean): 1140 ng/mL | concentration at 0.5 hr ([1]; mouse, plasma, iv, 1 mg/kg, I-27 IV 1 mg/kg, 0.5 hr, read-out: Plasma concentration Individual): 638 ng/mL | concentration at 0.5 hr ([1]; mouse, plasma, iv, 1 mg/kg, I-27 IV 1 mg/kg, 0.5 hr, read-out: Plasma concentration Mean): 557 ng/mL | concentration at 1 hr ([1]; mouse, plasma, iv, 1 mg/kg, I-27 IV 1 mg/kg, 1 hr, read-out: Plasma concentration Individual): 341 ng/mL | concentration at 1 hr ([1]; mouse, plasma, iv, 1 mg/kg, I-27 IV 1 mg/kg, 1 hr, read-out: Plasma concentration Mean): 356 ng/mL | concentration at 2 hr ([1]; mouse, plasma, iv, 1 mg/kg, I-27 IV 1 mg/kg, 2 hr, read-out: Plasma concentration Individual): 142 ng/mL | concentration at 2 hr ([1]; mouse, plasma, iv, 1 mg/kg, I-27 IV 1 mg/kg, 2 hr, read-out: Plasma concentration Mean): 173 ng/mL | concentration at 4 hr ([1]; mouse, plasma, iv, 1 mg/kg, I-27 IV 1 mg/kg, 4 hr, read-out: Plasma concentration Individual): 55.9 ng/mL | concentration at 4 hr ([1]; mouse, plasma, iv, 1 mg/kg, I-27 IV 1 mg/kg, 4 hr, read-out: Plasma concentration Mean): 39.2 ng/mL | concentration at 8 hr ([1]; mouse, plasma, iv, 1 mg/kg, I-27 IV 1 mg/kg, 8 hr, read-out: Plasma concentration Individual): 7.46 ng/mL | concentration at 8 hr ([1]; mouse, plasma, iv, 1 mg/kg, I-27 IV 1 mg/kg, 8 hr, read-out: Plasma concentration Mean): 7.12 ng/mL | concentration at 24 hr ([1]; mouse, plasma, iv, 1 mg/kg, I-27 IV 1 mg/kg, 24 hr, BQL = below quantifiable limit of 1.00 ng/mL, read-out: Plasma concentration Individual): 1.09 ng/mL | concentration at 24 hr ([1]; mouse, plasma, iv, 1 mg/kg, I-27 IV 1 mg/kg, 24 hr, BQL = below quantifiable limit of 1.00 ng/mL, read-out: Plasma concentration Mean): 1.09 ng/mL | concentration at 0.083 h ([1]; mouse, plasma, po, 30 mg/kg, I-27 PO 30 mg/kg, 0.083 hr, read-out: Plasma concentration Individual): 40.5 ng/mL | concentration at 0.083 h ([1]; mouse, plasma, po, 30 mg/kg, I-27 PO 30 mg/kg, 0.083 hr, read-out: Plasma concentration Mean): 61.1 ng/mL | concentration at 0.25 h ([1]; mouse, plasma, po, 30 mg/kg, I-27 PO 30 mg/kg, 0.25 hr, read-out: Plasma concentration Individual): 448 ng/mL | concentration at 0.25 h ([1]; mouse, plasma, po, 30 mg/kg, I-27 PO 30 mg/kg, 0.25 hr, read-out: Plasma concentration Mean): 468 ng/mL | concentration at 0.5 h ([1]; mouse, plasma, po, 30 mg/kg, I-27 PO 30 mg/kg, 0.5 hr, read-out: Plasma concentration Individual): 2080 ng/mL | concentration at 0.5 h ([1]; mouse, plasma, po, 30 mg/kg, I-27 PO 30 mg/kg, 0.5 hr, read-out: Plasma concentration Mean): 1650 ng/mL | concentration at 1 h ([1]; mouse, plasma, po, 30 mg/kg, I-27 PO 30 mg/kg, 1 hr, read-out: Plasma concentration Individual): 1930 ng/mL | concentration at 1 h ([1]; mouse, plasma, po, 30 mg/kg, I-27 PO 30 mg/kg, 1 hr, read-out: Plasma concentration Mean): 2050 ng/mL | concentration at 2 h ([1]; mouse, plasma, po, 30 mg/kg, I-27 PO 30 mg/kg, 2 hr, read-out: Plasma concentration Individual): 2040 ng/mL | concentration at 2 h ([1]; mouse, plasma, po, 30 mg/kg, I-27 PO 30 mg/kg, 2 hr, read-out: Plasma concentration Mean): 2280 ng/mL | concentration at 4 h ([1]; mouse, plasma, po, 30 mg/kg, I-27 PO 30 mg/kg, 4 hr, read-out: Plasma concentration Individual): 2050 ng/mL | concentration at 4 h ([1]; mouse, plasma, po, 30 mg/kg, I-27 PO 30 mg/kg, 4 hr, read-out: Plasma concentration Mean): 1990 ng/mL | concentration at 8 h ([1]; mouse, plasma, po, 30 mg/kg, I-27 PO 30 mg/kg, 8 hr, read-out: Plasma concentration Individual): 613 ng/mL | concentration at 8 h ([1]; mouse, plasma, po, 30 mg/kg, I-27 PO 30 mg/kg, 8 hr, read-out: Plasma concentration Mean): 607 ng/mL | concentration at 24 h ([1]; mouse, plasma, po, 30 mg/kg, I-27 PO 30 mg/kg, 24 hr, read-out: Plasma concentration Individual): 14.2 ng/mL | concentration at 24 h ([1]; mouse, plasma, po, 30 mg/kg, I-27 PO 30 mg/kg, 24 hr, read-out: Plasma concentration Mean): 11.8 ng/mL | AUC(0-inf) ([1]; mouse, plasma, I-27 IV 1 mg/kg): 2170 ng·h/mL | AUC(0-t) ([1]; mouse, plasma, I-27 IV 1 mg/kg): 2160 ng·h/mL | C0 ([1]; mouse, plasma, I-27 IV 1 mg/kg): 9630 ng/mL | MRT inf ([1]; mouse, plasma, I-27 IV 1 mg/kg): 1.13 h | MRT last ([1]; mouse, plasma, I-27 IV 1 mg/kg): 1.04 h | clearance ([1]; mouse, plasma, I-27 IV 1 mg/kg): 7.68 mL/min/kg | half-life ([1]; mouse, plasma, I-27 IV 1 mg/kg): 4.29 h | Vd ([1]; mouse, plasma, I-27 IV 1 mg/kg, read-out: Vss): 0.52 L/kg | AUC(0-inf) [1, 2]: 17900 ng·h/mL | AUC(0-t) [1, 2]: 17800 ng·h/mL | Cmax [1, 2]: 2280 ng/mL | MRT inf [1, 2]: 4.74 h | MRT last [1, 2]: 4.68 h | Tmax [1, 2]: 2 h | half-life [1, 2]: 2.73 h | IC50 (MM.1S): 1000 to 8000 nM
SMILES: CC(C)Cc1sc(Nc2ncc(-c3cccs3)cc2C(=O)O)nc1C1(C)CCCCC1 [Compound I-27]

IC50 (MM.1R): ≤ 1000 nM | IC50 (MM.1S): ≤ 1000 nM
SMILES: CC(C)Cc1sc(Nc2ncc(-c3cccs3)cc2C(=O)O)nc1C(C)(C)C [Compound I-11]

Reference: patent US20240208961A1, “EIF4E INHIBITORS AND USES THEREOF” (PIC Therapeutics, Inc., priority 2022, published 2024)
